For data set [1], the system named is lung MDSCs and macrophages. Briefly: Flow cytometry of MDSCs and macrophages in lung tissue of BLM mice. To be noted: 30 mg·kg^−1 i.p. The data set is classed as in vivo, C57BL/6 mice. The method, then: (§1) Male C57BL/6 mice (8‐10 weeks old) were purchased from HFK Bioscience Co. Ltd. All animal experiments were permitted by the Institutional Animal Care and Treatment Committee of Sichuan University in China (New Permit Number: 20190524003). Lung fibrosis was induced using BLM treatment (2 mg·kg^−1). All C57BL/6 mice were divided into five groups (n = 10): a BLM + Nintedanib group (Nintedanib, 30 mg·kg^−1), a BLM + YTH‐60 group (YTH‐60, 15 mg·kg^−1 and 30 mg·kg^−1), a control group (Sham), and a bleomycin group (Vehicle). At the beginning, the mice were anaesthetized using 10% chloral hydrate, dissolved BLM with saline and administered intratracheally. To evaluate the preventive effect, the next day after BLM challenge, YTH‐60 and Nintedanib were administered intraperitoneally daily for 13 days (fibroproliferation) to the mice. All mice were sacrificed 24 hours after the last drug injection, the lungs and other organs were taken for the subsequent analysis. To test the therapeutic effect, after the 7th day of BLM treatment, mice were injected intraperitoneally with YTH‐60, Nintedanib and vehicle daily for 7 consecutive days (fibroproliferation).
We analysed the percentage of MDSCs and macrophages by Flow cytometry (FCM). ^22 Use scissors to cut approximately 30 mg of mouse lung tissues into small pieces and use 5 mL of collagenase‐IV with a concentration of 1 mg·mL^−1, digested at 37°C for at least 1 hour. Centrifuge at 400 g for 5 minutes and discard the supernatant. Then, add another 5 mL PBS to resuspend, after precipitation, taken the supernatant and mixed with the corresponding fluorochromium binding antibody, incubate for 30 minutes in the dark at 4°C (MDSCs with PE^−CD11b^−, FITC^−Gr1^− conjugated dual labelling and macrophages with PE^−F4/80^−, FITC^−CD11b^− conjugated dual labelling). The data were acquired with a FACS Canton II NovoCyte (ACEA).
(In flow cytometry, cells or beads pass a laser one at a time.)

Data set [2] in a line: Determination of thermodynamic solubility. The data set is classed as physicochemical. To be noted: for solubility at 5 min: thermodynamic from solid, double testing. The method, then:
Weigh about 1 mg of the test compound into 1.5 mL centrifuge tube and add 0.5 mL various solvents, sonicating for 5 minutes (if the compound is completely dissolved, then added again test compound until a little solid remains). Take the supernatant after centrifugation, diluting to a suitable concentration using and measuring absorbance values by UV spectrophotometer. Weigh 10 mg compound accurately of the test compound into 1.5 mL centrifuge tube and add 1.2 mL methanol solution to prepare 8.3 mg·mL^−1 mother solution. Take the above described mother liquor to prepare the solution in concentrations of 8.3, 4.2, 2.1, 1.0, 0.52, 0.26 mg·mL^−1 then measure absorbance value. With concentration c (mg·mL^−1) as the abscissa, absorbance A as the ordinate, mapping and fitting line to get the standard curve (The correlation coefficient should be greater than 0.998). Calculate solubility according to the standard curve of the linear equation.

The target in data set [3] is T1, Src (1‐530) (h) (Homo sapiens, UniProt P12931).
T1 construct: Src (1‐530) (h)
Put plainly: Kinase profile assay and IC50 test (Eurofins). Type of data set: biochemical. Conditions: double testing. The method, then:
(§2) The in vitro kinase enzymatic inhibition assays were carried out by the Kinase Profiling Services provided by Eurofins (UK). The detailed protocol descriptions can be provided by the website (https://www.eurofinsdiscoveryservices.com).

Data set [4] has as its target FGFR1 (h) (Homo sapiens, UniProt P11362). Put plainly: Kinase profile assay and IC50 test (Eurofins). To be noted: double testing. Type of data set: biochemical. The method, then: as §2
In data set [5] the test system is BLM‐induced pulmonary fibrosis. Put plainly: BLM‐induced pulmonary fibrosis mouse model, therapeutic treatment (day 7 to 14). Type of data set: in vivo, C57BL/6 mice. To be noted: mice, 30 mg·kg^−1 i.p. from day 7 to 14. The method, then: as §1, with “To test the therapeutic effect, after the 7th day of BLM treatment, mice were injected intraperitoneally with YTH‐60, Nintedanib and vehicle daily for 7 consecutive days (fibroproliferation).” left out
The left lung was detached and immediately fixed in 4% paraformaldehyde for 72 hours and then embed with paraffin wax. […] Ashcroft scoring was used to examine the severity of pulmonary fibrosis. ^20 The image analysis‐based system to quantify collagen deposition was described previously. ^21

The subject of data set [6] is phosphorylation of Smad2/3. Briefly: Western blot of TGF‐β1‐induced Smad signalling in fibroblasts. The data set is classed as cell-based. To be noted: TGF‐β1, 24 hours. The method, then: Samples of cells and mouse lung tissues were lysed in RIPA buffer with a protease and phosphatase inhibitors (Selleckchem). The protein concentrations in the cell lysate were measured by the Lowry method. Approximately 50 μg of total protein was separated by SDS‐PAGE and then transferred to polyvinylidene fluoride (PVDF) membranes (Amersham Bioscience). After the membranes incubation with the specific primary and secondary antibodies, the reactive bands were detected with enhanced chemiluminescent substrate to horseradish peroxidase.
For orientation: Immunoblotting shows a protein as a band on a membrane.

In data set [7] the test system is A549 cells. Briefly: Wound healing assay. Conditions: A549, combined with TGF‐β1 vs TGF‐β1 alone. The data set is classed as cell-based, human. The method, then:
A549 cells (1 × 10^6 well^−1) were grown on 6‐well plates in 2 mL 10% FBS DMEM medium. Making a scratch with a sterile 200 μL microtube tip after 24 hours and the scratched cells were washed gently with serum‐free DMEM. Then, TGF‐β1 or YTH‐60 added to their corresponding wells and cultured for 24 hours. Each picture was imaged at three different locations. ImageJ software was used to estimate the percentage of the original width by measuring the width of the scratches.

In data set [8] the test system is α‐SMA, collagen I and TGF‐β1 mRNA in NIH‐3T3 cells. Put plainly: Real‐time qPCR of fibrosis markers in TGF‐β1‐treated fibroblasts. To be noted: NIH‐3T3, TGF‐β1 and 2.5 μmol·L^−1 for 24 hours. The data set is classed as cell-based, mouse. The method, then:
Total RNA of lung tissues or cells was extracted by using AxyPrep Multisource Total RNA Miniprep Kit (Axygen). Reverse transcription was carried out with Evo M‐MLV RT Kit with gDNA Clean (Accurate, AG11711). qRTPCR was conducted using SYBR Green Pro Taq HS (Accurate, AG11701).
A general note: Real-time PCR tracks product formation cycle by cycle.

The subject of data set [9] is BLM‐induced pulmonary fibrosis. Briefly: BLM‐induced pulmonary fibrosis mouse model, preventive treatment. To be noted: mice, day 14. The data set is classed as in vivo, C57BL/6 mice. The method, then:
as §1, with “To test the therapeutic effect, after the 7th day of BLM treatment, mice were injected intraperitoneally with YTH‐60, Nintedanib and vehicle daily for 7 consecutive days (fibroproliferation).” left out
The left lung was detached and immediately fixed in 4% paraformaldehyde for 72 hours and then embed with paraffin wax. […] Ashcroft scoring was used to examine the severity of pulmonary fibrosis. ^20 The image analysis‐based system to quantify collagen deposition was described previously. ^21 […]

Values after ≈ are worked out from the molar mass of the structure shown. Like-named read-outs stand apart in the source and are kept apart here.

By solubility is commonly meant how much of the substance goes into solution per volume. For orientation: IC50 means the midpoint of a concentration-inhibition curve.

T1 sequence (P12931 1-530): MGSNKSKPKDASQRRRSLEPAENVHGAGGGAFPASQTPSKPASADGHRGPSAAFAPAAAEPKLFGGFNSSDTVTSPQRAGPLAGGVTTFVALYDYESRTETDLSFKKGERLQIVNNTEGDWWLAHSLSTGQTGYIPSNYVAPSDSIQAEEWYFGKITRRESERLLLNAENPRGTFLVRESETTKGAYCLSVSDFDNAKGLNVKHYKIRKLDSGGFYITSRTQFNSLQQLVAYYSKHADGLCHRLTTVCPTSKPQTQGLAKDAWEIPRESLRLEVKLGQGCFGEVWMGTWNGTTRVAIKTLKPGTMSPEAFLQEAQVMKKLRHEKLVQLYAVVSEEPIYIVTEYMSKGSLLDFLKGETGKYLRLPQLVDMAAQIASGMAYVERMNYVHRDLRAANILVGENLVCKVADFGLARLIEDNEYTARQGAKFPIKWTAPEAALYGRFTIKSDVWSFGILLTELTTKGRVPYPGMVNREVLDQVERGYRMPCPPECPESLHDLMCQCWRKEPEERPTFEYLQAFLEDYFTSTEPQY
FGFR1 (h), sequence (P11362 22-822): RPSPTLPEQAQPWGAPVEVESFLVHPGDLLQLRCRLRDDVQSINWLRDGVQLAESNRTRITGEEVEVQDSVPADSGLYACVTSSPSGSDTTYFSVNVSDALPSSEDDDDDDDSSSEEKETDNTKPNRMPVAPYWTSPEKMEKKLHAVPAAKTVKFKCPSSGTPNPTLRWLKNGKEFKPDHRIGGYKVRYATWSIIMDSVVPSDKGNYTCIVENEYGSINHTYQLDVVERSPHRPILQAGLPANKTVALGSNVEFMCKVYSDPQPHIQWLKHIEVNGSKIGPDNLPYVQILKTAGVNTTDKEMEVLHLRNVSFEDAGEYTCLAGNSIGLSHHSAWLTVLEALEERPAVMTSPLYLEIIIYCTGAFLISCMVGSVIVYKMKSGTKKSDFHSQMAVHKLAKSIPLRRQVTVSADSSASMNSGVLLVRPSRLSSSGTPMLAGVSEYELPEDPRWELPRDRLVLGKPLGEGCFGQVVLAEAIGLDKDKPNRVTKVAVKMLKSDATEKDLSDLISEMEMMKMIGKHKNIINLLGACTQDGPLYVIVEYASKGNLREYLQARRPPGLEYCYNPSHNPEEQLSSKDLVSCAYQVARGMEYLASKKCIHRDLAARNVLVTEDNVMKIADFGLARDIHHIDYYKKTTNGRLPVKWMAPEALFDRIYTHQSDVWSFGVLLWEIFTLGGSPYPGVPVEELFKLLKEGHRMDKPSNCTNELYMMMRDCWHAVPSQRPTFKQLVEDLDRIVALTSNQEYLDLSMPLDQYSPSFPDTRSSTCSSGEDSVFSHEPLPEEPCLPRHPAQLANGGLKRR

Consider `COc1cc(OC)c(Cl)c(-c2ccc3c(/C=C/c4ccc(N(C)C(=O)CN5CCN(C)CC5)cc4)n[nH]c3c2)c1Cl` [YTH‐60, (E)‐N‐(4‐(2‐(6‐(2,6‐dichloro‐3,5‐dimethoxyphenyl)‐1H‐indazol‐3‐yl)vinyl)phenyl)‐N‐methyl‐2‐(4‐methylpiperazin‐1‐yl)acetamide], for which, in data set [1] (day 14, BLM group 19.9%, sham 9.9%), the “percentage of CD11b^+F4/80^+ cells (macrophages) in lung” value is 9.27%. For the same compound, in data set [1] (day 14, BLM group 20.5%, sham 5.14%), the “percentage of CD11b^+Gr1^+ cells (MDSCs) in lung” value is 7.07%. For the same compound, the “solubility compared with Nintedanib (in words)” value in data set [2] was “better solubility than Nintedanib”. Further, the solubility at 5 min in data set [2] (organic solvent or mixture, Acetone, read-out: Solubility, Acetone) was found to be 83.1 ± 0.89 mg/mL (≈ 140 mM); in data set [2] (organic solvent or mixture, Acetonitrile, read-out: Solubility, Acetonitrile), 18.3 ± 1.2 mg/mL (≈ 30.8 mM); in data set [2] (organic solvent or mixture, Ethyl acetate, read-out: Solubility, Ethyl acetate), 101 ± 4.02 mg/mL (≈ 170 mM); in [2] (organic solvent or mixture, Ethyl alcohol, read-out: Solubility, Ethyl alcohol) it was 77 ± 1.53 mg/mL (≈ 130 mM); in [2] (saline or isotonic, Normal saline, read-out: Solubility, Normal saline) it was 12.7 ± 0.15 mg/mL (≈ 21.4 mM); in data set [2] (Water, read-out: Solubility, Water), 1.71 ± 0.14 mg/mL (≈ 2.88 mM). The IC50 came to 633 nM in data set [3] and 4 nM in data set [4]. For the same compound, the “therapeutic effect on BLM‐induced lung fibrosis (in words)” value in [5] is “good therapeutic effect”. Moreover, in data set [6], the “TGF‐β1‐induced phosphorylation of Smad2/3 (in words)” value was “significantly reduced this phosphorylation”. In data set [7], the “cell migration (in words)” value was “significantly inhibited cell migration”. Also, in data set [8], the “mRNA levels of α‐SMA, collagen I and TGF‐β1 (in words)” value is “reduced this effect”. Moreover, the “preventive effect on BLM‐induced pulmonary fibrosis (in words)” value was “less effective” in data set [9] (15 mg·kg^−1 i.p.) and “good preventive effect” in [9] (30 mg·kg^−1 i.p.).

These data come from paper PMC8249783, “A novel multikinase inhibitor SKLB‐YTH‐60 ameliorates inflammation and fibrosis in bleomycin‐induced lung fibrosis mouse models” (Cell Proliferation, 2021).
